Source: ChEMBL document CHEMBL4177712, “AMP and adenosine are both ligands for adenosine 2B receptor signaling” (Bioorg Med Chem Lett, 2018)
Active and inactive are the calls of the source. No cut-off for these calls is given here.

Key:
[1] = target: T1, Adenosine receptor A2b (Homo sapiens) (UniProt P29275); experiment: Agonist activity at human A2B receptor expressed in CHO cells assessed as induction of calcium mobilization by Fluo-4 dye based fluorescence assay; assay type: functional, cell-based
T1 sequence (whole entry): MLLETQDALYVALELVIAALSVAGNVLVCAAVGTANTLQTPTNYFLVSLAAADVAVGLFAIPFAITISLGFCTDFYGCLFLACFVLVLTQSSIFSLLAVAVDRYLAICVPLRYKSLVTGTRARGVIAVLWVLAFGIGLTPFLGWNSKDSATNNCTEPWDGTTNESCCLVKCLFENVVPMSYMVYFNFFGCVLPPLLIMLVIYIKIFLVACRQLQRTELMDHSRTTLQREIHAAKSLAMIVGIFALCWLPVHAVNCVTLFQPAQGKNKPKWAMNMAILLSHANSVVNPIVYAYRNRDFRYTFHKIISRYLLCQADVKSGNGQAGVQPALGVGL

[2] = target: T1, Adenosine receptor A2b (Homo sapiens); experiment: Agonist activity at human A2B receptor expressed in CHOK1 cells expressing ADORA2B-CRE-bla assessed as induction of cAMP accumulation by FRET assay; assay type: functional, cell-based

SMILES | Activity [1] | Activity [2]
Nc1ncnc2c1ncn2[C@@H]1O[C@H](CO)[C@@H](O)[C@H]1O | Active | 
Nc1ncnc2c1ncn2[C@H]1O[C@H](COP(O)(O)=S)[C@@H](O)[C@H]1O | Dose-dependent effect | inactive
